Here are results for one compound from patent publication US20080103209A1, “Compounds And Methods For Treating Non-Inflammatory Pain Using Ppar Alpha Agonists” (The Regents of The University of California, priority 2004, published 2008).

One test deals with mice. As to the kind of experiment: Carrageenan-evoked paw edema (acute). The note with it: wild-type C57Bl6J; PEA 10 mg-kg^−1 i.p., WY-14643 20 mg-kg^−1 i.p. The test is classed as in vivo, mouse. The source says:
In addition to rapid-onset analgesia, PEA also exerts prolonged anti-inflammatory effects [Benvenuti, et al., Boll Soc It Biol Sper 44, 809-813 (1968); Lambert, et al., Curr Med. Chem. 9, 663-74 (2002)], which are associated with the down-regulation of pro-inflammatory proteins such as nitric oxide synthase (NOS) [Costa, et al., Br J Pharmacol 137, 413-20. (2002)]. Two models of acute inflammation were used to examine whether such effects are mediated through PPARα. First, paw edema was induced in C57B16J wild-type and PPARα^−/− mice by local injection of the irritant, carrageenan [Cirino, et al., Eur J Pharmacol 166, 505-10 (1989)]. […] Next, ear edema was produced in CD1 mice by topical administration of the phorbol ester, 12-O-tetradecanoylphorbol-13-acetate (TPA) [Sheu, et al., J Invest Dermatol., 94-101. (2002)]. […] In a parallel set of experiments, the effects of PEA (20 μg) on TPA-induced edema were tested in C57B16J wild-type and PPARα^−/− mice. […] Together, these findings indicate that PEA reduces acute nociception and inflammation through activation of PPARα.
An inflammatory response was initiated by injecting 2% (w v^−1, 20 μl) λ-carrageenan in sterile saline into mice hind paws using a 27-gauge needle. Drugs were administered 30 minutes before carrageenan (i.p.). Paw edema was measured using a plethysmometer (Ugo Basile, Italy).
(In general: The carrageenan paw model is a standard test of acute inflammation.)

A further test concerns the target T1, PPARγ (Homo sapiens, UniProt P37231).
T1 construct: expressed in transfected cells
T1 sequence (P37231 1-505): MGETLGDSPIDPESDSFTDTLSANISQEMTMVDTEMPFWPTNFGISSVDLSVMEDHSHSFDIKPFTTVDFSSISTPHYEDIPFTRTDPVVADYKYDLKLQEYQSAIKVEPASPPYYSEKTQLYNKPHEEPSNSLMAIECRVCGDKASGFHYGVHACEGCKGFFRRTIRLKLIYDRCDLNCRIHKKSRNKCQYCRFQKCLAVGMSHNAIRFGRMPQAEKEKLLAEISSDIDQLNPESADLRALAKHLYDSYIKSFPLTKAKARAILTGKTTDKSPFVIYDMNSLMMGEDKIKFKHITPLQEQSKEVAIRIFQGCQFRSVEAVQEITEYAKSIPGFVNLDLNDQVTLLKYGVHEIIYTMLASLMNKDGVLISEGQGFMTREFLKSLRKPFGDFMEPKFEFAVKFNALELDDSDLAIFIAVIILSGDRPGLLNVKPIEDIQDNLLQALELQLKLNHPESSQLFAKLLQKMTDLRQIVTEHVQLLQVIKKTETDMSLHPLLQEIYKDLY
The experiment in a line: PPARγ transactivation assay. The test is classed as cell-based. The settings on record: concentrations as high as 20 μM. The method, then: Transactivation assays were performed as previously described [Fu et al., Nature 425:90-93 (2003)].

Take `CCCCCCCCCCCCCCCC(=O)NCCO` [PEA, palmitoylethanolamide]: the “carrageenan paw edema in wild-type mice” value with mice is on record as “decreased edema”. Besides, the PPARγ activation result on PPARγ is given as “did not activate”.
